The text below walks through data of patent US9290454B2, “Substituted isoquinolines as CRTH2 receptor modulators” (Merck Sharp & Dohme Corp., priority 2012, dated 2016).

The target of the assay is hCRTH2 (Homo sapiens (Human), UniProt Q9Y5Y4). In words: Radioligand binding assay ([3H]-PGD2, SPA or filtration). The following applies: [3H]-PGD2 competition, membrane protein from HEK-hCRTH2 cell line, room temperature, SPA or filtration format. As for the experimental part: Radioligand binding was performed using filtration or scintillation proximity assay (SPA) technology. SPA assays were done at room temperature in 10 mM HEPES pH 7.4, 1 mM EDTA containing 2 mM MnCl2 and 16 nM [^3H]-PGD2 (PerkinElmer, Waltham, Mass.) (164 Ci mmol-1), in a final volume of 0.05 mL. Competing ligands were diluted in dimethylsulfoxide and added using very low volumes (500 nL). The reaction was initiated by the addition of a mixture of 3.52 ug of membrane protein prepared from a human embryonic kidney (HEK)-hCRTH2 cell line adhered to 140 ug of wheatgerm agglutinin SPA beads (PerkinElmer). Total and non-specific binding were determined in the absence and the presence of a CRTH2 antagonist, respectively. The reaction was routinely conducted for 60 minutes at room temperature followed by centrifugation for 5 minutes at 1000 RPM. The radioactivity was measured with a TopCountNXT (PerkinElmer). Filtration binding assays were done in a similar way with minor differences. The assay volume was 0.20 mL and competing ligands in dimethylsulfoxide were added in 2 uL. [^3H]-PGD2 was used at 0.6 nM, and reactions were initiated by the addition of 10 ug of membrane protein. Reactions were terminated by filtration through GF/C filter plates (PerkinElmer) presoaked in 10 mM HEPES. After washing with buffer, plates were dried in a 50° C. oven for 1 h, scintillation cocktail was added and radioactivity was measured. Results determined using the SPA-based assay were similar to those from the filtration binding assay. Table A (below) sets forth the results of the binding assay for representative compounds of the invention.
hCRTH2, sequence (Q9Y5Y4 whole entry): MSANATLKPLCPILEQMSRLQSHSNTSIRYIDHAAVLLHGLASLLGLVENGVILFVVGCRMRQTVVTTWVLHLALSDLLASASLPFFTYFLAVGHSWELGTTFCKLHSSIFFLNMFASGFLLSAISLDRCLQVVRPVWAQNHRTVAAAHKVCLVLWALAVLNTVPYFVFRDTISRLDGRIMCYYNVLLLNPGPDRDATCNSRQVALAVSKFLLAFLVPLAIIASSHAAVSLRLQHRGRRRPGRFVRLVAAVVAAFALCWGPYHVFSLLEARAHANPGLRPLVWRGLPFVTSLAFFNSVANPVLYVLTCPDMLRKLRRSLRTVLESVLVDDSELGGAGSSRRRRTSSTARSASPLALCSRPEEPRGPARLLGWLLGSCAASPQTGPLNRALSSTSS
Usually Ki stands for a dissociation constant, usually derived from enzyme kinetics or from competition with a known ligand. Lower therefore signals tighter binding. Regarding `C[C@@H]1CN(c2ccc(F)cc2)CCN1C(=O)c1ccc2c(=O)n(-c3ccc(F)cc3)c(CCCCC(=O)NS(=O)(=O)C3CC3)cc2c1` [Example 8.3, (R)-N-(cyclopropylsulfonyl)-5-(2-(4-fluorophenyl)-6-(4-(4-fluorophenyl)-2-methylpiperazine-1-carbonyl)-1-oxo-1,2-dihydroisoquinolin-3-yl)pentanamide], the affinity, expressed as Ki, was 17 nM.

For the compound `COc1ccccc1-n1c(CCCCC(=O)O)cc2cc(C(=O)N[C@H](C)c3ccc(F)cc3)ccc2c1=O` (single isomer, unassigned) [Example 3.7], the Ki is 18.7 nM.

`C[C@@H](NC(=O)c1ccc2c(=O)n(Cc3ccc(F)cc3)c(CCCCC(=O)O)cc2c1)c1ccc(F)cc1` [Example 1.2, (R)-5-(2-(4-fluorobenzyl)-6-((1-(4-fluorophenyl)ethyl)carbamoyl)-1-oxo-1,2-dihydroisoquinolin-3-yl)pentanoic acid]: the Ki turned out to be 49 nM.

Turning to `O=C(O)CCCCc1cc2cc(C(=O)N[C@@H]3CCCc4ccccc43)ccc2c(=O)n1-c1ccc(F)cc1` [Example 3.1, (R)-5-(2-(4-fluorophenyl)-1-oxo-6-((1,2,3,4-tetrahydronaphthalen-1-yl)carbamoyl)-1,2-dihydroisoquinolin-3-yl)pentanoic acid], the affinity corresponds to a Ki of 5.79 nM.

`COc1ccc(-n2c(CCCCC(=O)O)cc3cc(C(=O)N[C@H](C)c4ccc(F)cc4)ccc3c2=O)cc1` [Example 3.3, (R)-5-(6-((1-(4-fluorophenyl)ethyl)carbamoyl)-2-(4-methoxyphenyl)-1-oxo-1,2-dihydroisoquinolin-3-yl)pentanoic acid] registered a Ki of 8.2 nM.

`C[C@@H](NC(=O)c1ccc2c(=O)n(-c3ccc(F)cc3)c(CCCCC(=O)O)cc2c1)c1ccc(F)cc1` [Example 4.4, (R)-5-(2-(4-fluorophenyl)-6-((1-(4-fluorophenyl)ethyl)carbamoyl)-1-oxo-1,2-dihydroisoquinolin-3-yl)pentanoic acid] came in with a Ki of 5.16 nM.

Regarding `C[C@@H](NC(=O)c1ccc2c(=O)n(Cc3ccccc3)c(CCCCC(=O)O)cc2c1)c1ccc(F)cc1` [Example 1.1, (R)-5-(2-benzyl-6-((1-(4-fluorophenyl)ethyl)carbamoyl)-1-oxo-1,2-dihydroisoquinolin-3-yl)pentanoic acid], the Ki came out at 37.7 nM.

On to `O=C(CCCCc1cc2cc(-c3cc(Cc4ccc(F)cc4)on3)ccc2c(=O)n1-c1ccc(F)cc1)NS(=O)(=O)C1CC1` [Example 8.5, N-(cyclopropylsulfonyl)-5-(6-(5-(4-fluorobenzyl)isoxazol-3-yl)-2-(4-fluorophenyl)-1-oxo-1,2-dihydroisoquinolin-3-yl)pentanamide], for which the Ki is 17.2 nM.

Consider `C[C@@H](NC(=O)c1ccc2c(=O)n(-c3ccc(F)cc3)c(CCCCC(=O)NS(=O)(=O)C3CC3)cc2c1)c1ccc(F)cc1` [Example 8.2, (R)-3-(5-(cyclopropanesulfonamido)-5-oxopentyl)-2-(4-fluorophenyl)-N-(1-(4-fluorophenyl)ethyl)-1-oxo-1,2-dihydroisoquinoline-6-carboxamide], for which the Ki is 14.8 nM.

`O=C(O)CCCCc1cc2cc(C(=O)NC3CC(=O)Nc4ccccc43)ccc2c(=O)n1-c1ccc(F)cc1` (stereo not shown) [Example 4.3, 5-(2-(4-fluorophenyl)-1-oxo-6-((2-oxo-1,2,3,4-tetrahydroquinolin-4-yl)carbamoyl)-1,2-dihydroisoquinolin-3-yl)pentanoic acid] gave a Ki of 20.7 nM.

With `O=C(CCCCc1cc2cc(-c3noc(Cc4ccc(F)cc4)n3)ccc2c(=O)n1-c1ccc(F)cc1)NS(=O)(=O)C1CC1` [Example 8.6, N-(cyclopropylsulfonyl)-5-(6-(5-(4-fluorobenzyl)-1,2,4-oxadiazol-3-yl)-2-(4-fluorophenyl)-1-oxo-1,2-dihydroisoquinolin-3-yl)pentanamide], the Ki stood at 17.3 nM.

The compound `O=C(O)CCCCc1cc2cc(C(=O)N[C@@H]3CCCc4cc(F)ccc43)ccc2c(=O)n1-c1ccc(F)cc1` [Example 3.2, (R)-5-(6-((6-fluoro-1,2,3,4-tetrahydronaphthalen-1-yl)carbamoyl)-2-(4-fluorophenyl)-1-oxo-1,2-dihydroisoquinolin-3-yl) pentanoic acid] displayed a Ki of 6.5 nM.

With `C[C@@H]1CN(c2ccccc2)CCN1C(=O)c1ccc2c(=O)n(-c3ccc(F)cc3)c(CCCCC(=O)NS(=O)(=O)C3CC3)cc2c1` [Example 8.4, (R)-N-(cyclopropylsulfonyl)-5-(2-(4-fluorophenyl)-6-(2-methyl-4-phenylpiperazine-1-carbonyl)-1-oxo-1,2-dihydroisoquinolin-3-yl)pentanamide], the affinity corresponds to a Ki of 37.2 nM.

`O=C(O)CCCCc1cc2cc(-c3noc(-c4ccc(C(F)(F)F)cc4)n3)ccc2c(=O)n1-c1ccc(F)cc1` [Example 7.4, 5-(2-(4-fluorophenyl)-1-oxo-6-(5-(4-(trifluoromethyl)phenyl)-1,2,4-oxadiazol-3-yl)-1,2-dihydroisoquinolin-3-yl)pentanoic acid] had a Ki of 14.8 nM.

In the case of `COc1cccc(-n2c(CCCCC(=O)O)cc3cc(C(=O)N[C@H](C)c4ccc(F)cc4)ccc3c2=O)c1` [Example 3.5, (R)-5-(6-((1-(4-fluorophenyl)ethyl)carbamoyl)-2-(3-methoxyphenyl)-1-oxo-1,2-dihydroisoquinolin-3-yl)pentanoic acid], affinity was put at a Ki of 13.1 nM.

`C[C@@H]1CN(c2ccccc2)CCN1C(=O)c1ccc2c(=O)n(-c3ccc(F)cc3)c(CCCCC(=O)O)cc2c1` [Example 4.2, (R)-5-(2-(4-fluorophenyl)-6-(2-methyl-4-phenylpiperazine-1-carbonyl)-1-oxo-1,2-dihydro-isoquinolin-3-yl)pentanoic acid] had a Ki of 13.6 nM.

`C[C@@H](NC(=O)c1ccc2c(=O)n(-c3ccc(F)cc3)c(CC(=O)O)cc2c1)c1ccc(F)cc1` [Example 2.1, (R)-2-(2-(4-fluorophenyl)-6-((1-(4-fluorophenyl)ethyl)carbamoyl)-1-oxo-1,2-dihydroisoquinolin-3-yl)acetic acid]: the Ki stood at 4920 nM.

`COc1ccccc1-n1c(CCCCC(=O)O)cc2cc(C(=O)N[C@H](C)c3ccc(F)cc3)ccc2c1=O` (single isomer, unassigned) [Example 3.6] registered a Ki of 363 nM.

`C[C@@H]1CN(c2ccc(F)cc2)CCN1C(=O)c1ccc2c(=O)n(-c3ccc(F)cc3)c(CCCCC(=O)O)cc2c1` [Example 4.1, (R)-5-(2-(4-fluorophenyl)-6-(4-(4-fluorophenyl)-2-methylpiperazine-1-carbonyl)-1-oxo-1,2-dihydroisoquinolin-3-yl)pentanoic acid]: the Ki was 22.5 nM.

Compound `C[C@@H](NC(=O)c1ccc2c(=O)n(-c3ccc(C#N)cc3)c(CCCCC(=O)O)cc2c1)c1ccc(F)cc1` [Example 3.4, (R)-5-(2-(4-cyanophenyl)-6-((1-(4-fluorophenyl)ethyl)carbamoyl)-1-oxo-1,2-dihydroisoquinolin-3-yl)pentanoic acid] displayed a Ki of 8.84 nM.

With `O=C(O)CCCCc1cc2cc(-c3cc(Cc4ccc(F)cc4)on3)ccc2c(=O)n1-c1ccc(F)cc1` [Example 5.1, 5-(6-(5-(4-fluorobenzyl)isoxazol-3-yl)-2-(4-fluorophenyl)-1-oxo-1,2-dihydroisoquinolin-3-yl)pentanoic acid], the affinity corresponds to a Ki of 10.2 nM.

`CC(c1ccc(F)cc1)c1nc(-c2ccc3c(=O)n(-c4ccc(F)cc4)c(CCCCC(=O)O)cc3c2)no1` (stereo not shown) [Example 7.3, 5-(2-(4-fluorophenyl)-6-(5-(1-(4-fluorophenyl)ethyl)-1,2,4-oxadiazol-3-yl)-1-oxo-1,2-dihydroisoquinolin-3-yl)pentanoic acid]: the affinity, expressed as Ki, was 12.7 nM.
